In PubChem BioAssay AID328 (DTP/NCI, 2004) one finds T/C data, which are given here for 18 compounds.

The subject of the assay is BDF1 mice, P388 leukemia ip, median survival T/C. The assay can be described thus: NCI In Vivo Anticancer Drug Screen. Data for tumor model P388 Leukemia (intraperitoneal) in B6D2F1 (BDF1) mice. The following applies: endpoint: median survival time, higher = longer survival. A digest of the protocol:
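Read-out is survival of treated animals expressed relative to the vehicle group, as a T/C ratio.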

[1] abbreviates: dose: 50.0 mg/kg/injection, schedule: Q04DX003 (ip), vehicle: Klucel (hydroxypropylcellulose) (HPC).
Setting [2] is: dose: 100.0 mg/kg/injection, schedule: Q04DX003 (ip), vehicle: Klucel (hydroxypropylcellulose) (HPC).
Where [3] appears, read: dose: 200.0 mg/kg/injection, schedule: Q04DX003 (ip), vehicle: Klucel (hydroxypropylcellulose) (HPC).
Where [4] appears, read: dose: 50.0 mg/kg/injection, schedule: Q01DX009 (ip), vehicle: saline with Tween-80.
Where [5] appears, read: dose: 100.0 mg/kg/injection, schedule: Q01DX009 (ip), vehicle: saline with Tween-80.
Setting [6] is: dose: 200.0 mg/kg/injection, schedule: Q01DX009 (ip), vehicle: saline with Tween-80.
The mark [7] stands for this setting: dose: 25.0 mg/kg/injection, schedule: Q01DX009 (ip), vehicle: saline.
Where [8] appears, read: dose: 50.0 mg/kg/injection, schedule: Q01DX009 (ip), vehicle: saline.
The mark [9] stands for this setting: dose: 100.0 mg/kg/injection, schedule: Q01DX009 (ip), vehicle: saline.
Where [10] appears, read: dose: 100.0 mg/kg/injection, schedule: Q04DX003 (ip), vehicle: saline.
The mark [11] stands for this setting: dose: 100.0 mg/kg/injection, schedule: Q01DX009 (ip), vehicle: Klucel (hydroxypropylcellulose) (HPC).
[12] abbreviates: dose: 200.0 mg/kg/injection, schedule: Q01DX009 (ip), vehicle: Klucel (hydroxypropylcellulose) (HPC).
Setting [13] is: dose: 400.0 mg/kg/injection, schedule: Q01DX009 (ip), vehicle: Klucel (hydroxypropylcellulose) (HPC).

Each structure is given as a SMILES string. “And” between values parts separate entries of the source, which are not always exact repeats. Equal entries are not always repeated. Inconclusive results and toxic doses are left out.

Consider `O=[N+]([O-])c1ccc2nccc(Cl)c2c1`, for which the T/C (dose: 25.0 mg/kg/injection, schedule: Q04DX003 (ip), vehicle: Klucel (hydroxypropylcellulose) (HPC)) was 100 % of control and the T/C under setting [1] was 95 % of control.

For the compound `Cc1c(N)nc(=S)[nH]c1C(=O)O`, the T/C runs as follows: under setting [1], 113 % of control; (dose: 100.0 mg/kg/injection, schedule: Q01DX001 (ip), vehicle: Klucel (hydroxypropylcellulose) (HPC)) 109 % of control; under setting [2], 100 % of control; (dose: 200.0 mg/kg/injection, schedule: Q01DX001 (ip), vehicle: Klucel (hydroxypropylcellulose) (HPC)) 109 % of control; under setting [3], 100 % of control; (dose: 400.0 mg/kg/injection, schedule: Q01DX001 (ip), vehicle: Klucel (hydroxypropylcellulose) (HPC)) 104 % of control.

Regarding `COc1ccc(/C=C2\CCCC3=C2NC(=S)NC3c2ccc(OC)cc2)cc1` (stereo not given), the T/C under setting [4] was 107 % of control, the T/C under setting [5] is 97 % of control and the T/C under setting [6] is 91 % of control.

For the compound `C(CC1CO1)C1CO1` (stereo not given), the T/C by setting is: (dose: 22.0 mg/kg/injection, schedule: Q01DX009 (ip), vehicle: saline) 119 % of control and 120 % of control; under setting [7], 157 % of control; (dose: 30.0 mg/kg/injection, schedule: Q04DX003 (ip), vehicle: saline) 113 % of control; (dose: 33.0 mg/kg/injection, schedule: Q01DX009 (ip), vehicle: saline) 150 % of control; under setting [8], 161 % of control and 166 % of control and 176 % of control; (dose: 67.0 mg/kg/injection, schedule: Q04DX003 (ip), vehicle: saline) 172 % of control and 176 % of control. Further, the T/C is 175 % of control and 200 % of control (dose: 75.0 mg/kg/injection, schedule: Q01DX009 (ip), vehicle: saline); 215 % of control under setting [9]; 241 % of control and 200 % of control under setting [10]; 240 % of control (dose: 150.0 mg/kg/injection, schedule: Q04DX003 (ip), vehicle: saline).

`NCCOCC(N)C(=O)O` (stereo not given): the T/C reads like this: under setting [8], 109 % of control; under setting [9], 105 % of control; (dose: 200.0 mg/kg/injection, schedule: Q01DX009 (ip), vehicle: saline) 98 % of control.

As for `COc1cc2c(cc1OC)[C@H]1Cc3cc(OC)c(OC)cc3[C@@H](C2)N1C(C)=O`, the T/C is 91 % of control (dose: 50.0 mg/kg/injection, schedule: Q01DX005 (ip), vehicle: saline with Tween-80); 91 % of control (dose: 100.0 mg/kg/injection, schedule: Q01DX005 (ip), vehicle: saline with Tween-80); 93 % of control (dose: 200.0 mg/kg/injection, schedule: Q01DX005 (ip), vehicle: saline with Tween-80).

`O=C(/C=C/c1cccc(Br)c1)NCC(O)CO` (stereo not given): the T/C was 95 % of control under setting [6] and 87 % of control (dose: 400.0 mg/kg/injection, schedule: Q01DX009 (ip), vehicle: saline with Tween-80).

`NCCNc1ccc(NCCN)c2c1C(=O)c1ccccc1C2=O`: for the setting “dose: 6.25 mg/kg/injection, schedule: Q01DX009 (ip), vehicle: other”, the T/C was 214 % of control.

In the case of `CC([OH2+])CNCCN.CC([OH2+])CNCCN.O=S(=O)([O-])[O-].[Cu+2]` (stereo not given), the T/C is 101 % of control (dose: 6.25 mg/kg/injection, schedule: Q01DX009 (ip), vehicle: saline); 91 % of control (dose: 12.5 mg/kg/injection, schedule: Q01DX009 (ip), vehicle: saline); 94 % of control under setting [7].

In the case of `CCOC(=O)C1=C(Nc2ccccc2)CSC1`, the T/C is 94 % of control (dose: 25.0 mg/kg/injection, schedule: Q01DX009 (ip), vehicle: water); 97 % of control (dose: 50.0 mg/kg/injection, schedule: Q01DX009 (ip), vehicle: water); 102 % of control (dose: 100.0 mg/kg/injection, schedule: Q01DX009 (ip), vehicle: water); 108 % of control (dose: 200.0 mg/kg/injection, schedule: Q01DX009 (ip), vehicle: water); 91 % of control (dose: 400.0 mg/kg/injection, schedule: Q01DX009 (ip), vehicle: water).

Consider `O=CC(C=O)[N+](=O)[O-]`, for which the T/C by setting is: under setting [11], 91 % of control; under setting [12], 95 % of control; under setting [13], 108 % of control.

On to `CCC[CH2][Sn]([Cl])([CH2]CCC)[S]C(=S)NCCNC(=S)[S][Sn]([Cl])([CH2]CCC)[CH2]CCC`, for which the T/C runs as follows: (dose: 1.56 mg/kg/injection, schedule: Q04DX003 (ip), vehicle: Klucel (hydroxypropylcellulose) (HPC)) 110 % of control; (dose: 3.12 mg/kg/injection, schedule: Q01DX009 (ip), vehicle: Klucel (hydroxypropylcellulose) (HPC)) 105 % of control; (dose: 3.13 mg/kg/injection, schedule: Q04DX003 (ip), vehicle: Klucel (hydroxypropylcellulose) (HPC)) 124 % of control; (dose: 6.25 mg/kg/injection, schedule: Q01DX009 (ip), vehicle: Klucel (hydroxypropylcellulose) (HPC)) 153 % of control; (dose: 6.25 mg/kg/injection, schedule: Q04DX003 (ip), vehicle: Klucel (hydroxypropylcellulose) (HPC)) 154 % of control; (dose: 12.5 mg/kg/injection, schedule: Q01DX009 (ip), vehicle: Klucel (hydroxypropylcellulose) (HPC)) 156 % of control and 158 % of control. The T/C by setting is: (dose: 12.5 mg/kg/injection, schedule: Q04DX003 (ip), vehicle: Klucel (hydroxypropylcellulose) (HPC)) 100 % of control and 105 % of control; (dose: 25.0 mg/kg/injection, schedule: Q01DX009 (ip), vehicle: Klucel (hydroxypropylcellulose) (HPC)) 194 % of control.

As to `COc1ccc(NC(=O)CCC(=O)O)cc1`, the T/C is 92 % of control (dose: 100.0 mg/kg/injection, schedule: Q04DX003 (ip), vehicle: saline with Tween-80); 88 % of control (dose: 200.0 mg/kg/injection, schedule: Q04DX003 (ip), vehicle: saline with Tween-80); 88 % of control (dose: 400.0 mg/kg/injection, schedule: Q04DX003 (ip), vehicle: saline with Tween-80).

For `CN(C)c1ccc(/C=C/c2nc3ccccc3s2)cc1`, the T/C under setting [11] was 100 % of control; the T/C under setting [2] was 112 % of control; the T/C under setting [12] is 109 % of control; the T/C under setting [3] is 108 % of control; the T/C under setting [13] is 109 % of control; the T/C (dose: 400.0 mg/kg/injection, schedule: Q04DX003 (ip), vehicle: Klucel (hydroxypropylcellulose) (HPC)) is 100 % of control.

For the compound `CC1(C)N=C(N)N=C(N)N1NC(=O)c1cccc(Cl)c1`, the T/C was 109 % of control (dose: 50.0 mg/kg/injection, schedule: Q04DX003 (ip), vehicle: saline sonified); 109 % of control (dose: 100.0 mg/kg/injection, schedule: Q04DX003 (ip), vehicle: saline sonified); 109 % of control (dose: 200.0 mg/kg/injection, schedule: Q04DX003 (ip), vehicle: saline sonified).

As to `CN(C)c1ccc(Sc2ccc3nc(N)nc(N)c3c2)cc1`, the T/C under setting [4] was 112 % of control, the T/C under setting [5] is 103 % of control and the T/C under setting [6] is 174 % of control.

Take `CC(C)(C)OC(=O)C(C=O)N1C(=O)c2ccccc2C1=O` (stereo not given): the T/C (dose: 100.0 mg/kg/injection, schedule: Q01DX001 (ip), vehicle: saline with Tween-80) is 95 % of control; the T/C (dose: 200.0 mg/kg/injection, schedule: Q01DX001 (ip), vehicle: saline with Tween-80) was 95 % of control; the T/C (dose: 400.0 mg/kg/injection, schedule: Q01DX001 (ip), vehicle: saline with Tween-80) was 100 % of control.

Regarding `CC(C)(O)C(Cl)(Cl)Cl`, the T/C is, setting by setting: (dose: 50.0 mg/kg/injection, schedule: Q04DX003 (ip), vehicle: saline) 115 % of control; under setting [10], 111 % of control; (dose: 200.0 mg/kg/injection, schedule: Q04DX003 (ip), vehicle: saline) 107 % of control.
